The values that follow come from patent US20250152580A1, “METHODS FOR TREATING IMMUNE DISEASES” (Ascentage Pharma (Suzhou) co., Ltd., priority 2022, published 2025).

The test system of test [1] is OXA induced atopic dermatitis model. The experiment in a line: OXA induced atopic dermatitis (AD) model in C57BL/6 mice. The test is classed as in vivo. Conditions: Cpd. 4 10, 30 and 100 mg/kg po qd day 7-25; dexamethasone 25 μL of 0.09% (w/v) topical qd; compared with Vehicle. From the text: Atopic dermatitis (AD) is a chronic skin disease that presents with itching, erythema and squamous lesions. Haptenating agent oxazolone (OXA) sensitization and continuous challenge establish AD like skin inflammation.
Female C57BL/6 mice (6 weeks old) were obtained from Biocytogen Laboratory Animal Co. Ltd. Animals were housed and handled in a temperature-controlled environment with a 12-h light/12-h dark cycle. A total of 48 mice were assigned to 6 groups by randomization based on body weight.
To induce AD-like lesion, all right ears of mice except the G1 sham control group were applied with oxazolone (OXA). Briefly, skin inflammation was induced by topical administration with 25 μL of 0.8% OXA dissolved in acetone on day 0, and repeated 25 μl of 0.4% OXA three times a week from day 7 to 25. G1 sham control group was treated same volume of vehicles. Therapeutic groups as 10 mg/kg, 30 mg/kg and 100 mg/kg Cpd. 4 (po, qd, day 7 to day 25) or 25 μL of 0.09% (w/v) dexamethasone (topical, qd, day 7 to day 25) were applied to the mice. The protocols and procedures involving the care and use of animals were approved by the Institutional Animal Care and Use Committee (IACUC) at Biocytogen (Beijing, China).
Ear thickness of mice was measured before application of Oxa and every other day from day 7 to day 26. […]

For test [2], the system named is TNBS induced inflammatory bowel disease (IBD) model. The experiment in a line: TNBS induced inflammatory bowel disease (IBD) model in Balb/c mice. The test is classed as in vivo. Conditions: for colon weight: vehicle 336.8±25.15 mg; for colon length: vehicle 6.26±0.16 cm; for pathological score (colon, H&E): vehicle 10.33±0.35. From the text: There are two kinds of IBD: Crohn's disease (CD) and ulcerative colitis (UC). TNBS administration results in a preclinical mouse model replicating clinical Crohn's disease.
Female Balb/c mice (8 weeks old) were obtained from Beijing Vital River Laboratory Animal Co. Ltd. Animals were housed and handled in a temperature-controlled environment with a 12-h light/12-h dark cycle. A total of 50 mice were assigned to 5 groups by randomization based on body weight.
On Day 0, the mice weighing 18-20 g were anesthetized with […] (Easycheck, M2910). The mice were further intra-rectally injected 100 μL 1.5% TNBS solution (final concentration 50% ethanol) in the vehicle group and other treatment groups. For the Sham group, the mice were intra-rectally injected with 50% ethanol at the same volume.
Mice in Group 1 and Group 2 were treated with vehicle for 8 days (po, qd, from day −1 to day 6). Mice in Group 3 were treated with 50 mg/kg Cpd. 4 for 8 days (preventive regimen, po, qd, from day −1 to day 6). Mice in Group 4 were treated with 50 mg/kg Cpd. 4 for 6 days (therapeutic regimen, po, qd, from day 1 to day 6). 50 mg/kg Mesalamine was used as positive control which was orally administered to mice in Group 5 for 8 days (preventive regimen, qd, from day −1 to day 6). The protocols and procedures involving the care and use of animals were approved by the Institutional Animal Care and Use Committee (IACUC) at WuxiApptec (Shanghai, China).
Clinical signs of IBD were assessed every day based on the score of disease activity index (DAI) which was evaluated from three parameters using a scoring system from 0 to 4: stool consistency (0, normal stool; 1, soft but still formed stool; 2, soft and not formed stool; 3, very soft and wet stool; 4, watery diarrhea), bleeding score (0, negative hemoccult; 1, weak positive hemoccult; 2, positive hemoccult; 3, blood trace in stool visible; 4, gross rectal bleeding) and body weight loss (0, no body weight loos; 1, 1-5% body weight loss; 2, 6-10% body weight loss; 3, 11-20% body weight loss; 4, >20% body weight loss).
At the end of induction with TNBS (day 7), the animals were euthanized, dissected and the entire colon was quickly removed and gently cleared of feces.
The entire colon was weighed, and the total length was measured. Colon weight gain and shortening is an indirect marker of inflammation. As expected, colon weight induced by TNBS increased to 336.8±25.15 mg. […] The TNBS-induced colon weight increasement were improved by Cpd. 4 treatment (202.4±3.95 mg for 50 mg/kg Cpd. 4 preventive therapy and 214.4±5.17 mg for 50 mg/kg Cpd. 4 therapeutic therapy) (FIG. 2).
At the end of induction with TNBS, the animals were euthanized, and blood was collected immediately by the heart punctures and used for whole blood cell analysis.
At the end of the study (day 7), the cell suspensions from sham control, model control and Cpd. 4 therapeutic treatment groups were obtained from mesenteric lymph nodes (MLN). Cells were stained with the following florescence-labelled antibodies: APC-Cy7-conjugated anti-mouse CD45, BV510-conjugated anti-mouse CD3e, AF700-conjugated anti-mouse CD8a, BUV395-conjugated anti-mouse CD4, BV421-conjugated anti-mouse CD25, FITC-conjugated anti-mouse Foxp3, BV650-conjugated anti-mouse IFN-γ, BV786-conjugated anti-mouse IL-17A, BB700-conjugated anti-mouse TNF-α, APC-conjugated anti-mouse B220, BV395-conjugated anti-mouse CD3e, BV605-conjugated anti-mouse CD11b, BB700-conjugated anti-mouse CD11c, AF488-conjugated anti-mouse MHCII, BV421-conjugated anti-mouse NK1.1, BV510-conjugated anti-mouse Ly6G, PE-Cy7-conjugated anti-mouse CD107a and PE-CF594-conjugated anti-mouse F4/80. All cells were primarily gated on single and live lymphocytes based on forward scatter (FCS), side scatter (SSC) and live/dead staining buffer. Samples were analyzed on a flow cytometer (BD LSRFortessa) to count the percentage of each subtype of lymphocytes. […]

Setting [3] is: 50 mg/kg po qd preventive treatment, day 7.
[4] abbreviates: 50 mg/kg po qd therapeutic treatment, day 7.
Where [5] appears, read: 50 mg/kg po qd, Cpd. 4 preventive and therapeutic, mesalamine day −1 to day 6, compared with Vehicle.
The mark [6] stands for this setting: Cpd. 4 50 mg/kg po qd, preventive and therapeutic, compared with Vehicle, 50 mg/kg.
[7] abbreviates: mesenteric lymph nodes, flow cytometry, day 7, 50 mg/kg therapeutic treatment, compared with vehicle.

“Also recorded” adds a separate entry of the source.

With `O=C(NS(=O)(=O)c1ccc(NC[C@H]2COCCO2)c([N+](=O)[O-])c1)c1ccc(N2CCN(CC3=C(c4ccc(Cl)cc4)CC4(CCC4)CC3)CC2)cc1Oc1cnc2[nH]ccc2c1` [Cpd. 4, (S)-N-((4-(((1,4-dioxan-2-yl)methyl)amino)-3-nitrophenyl)sulfonyl)-2-((1H-pyrrolo[2,3-b]pyridin-5-yl)oxy)-4-(4-((6-(4-chlorophenyl)spiro[3.5]non-6-en-7-yl)methyl)piperazin-1-yl)benzamide], in test [1], the ear thickness result was “significantly reducing the ear thickness; also recorded: significantly reduced”. The compound further yielded a colon weight in test [2] (50 mg/kg po qd preventive therapy (day −1 to day 6), day 7) of 202.4 ± 3.95 mg. In test [2] (setting [3]), the colon length came out at 7.81±0.2 cm and the “pathological score (colon, H&E)” value is listed as 2.70±0.80. The compound further registered a colon weight in test [2] (50 mg/kg po qd therapeutic therapy (day 1 to day 6), day 7) of 214.4 ± 5.17 mg. Also, in test [2] (setting [4]), the colon length came out at 7.39±0.12 cm and the “pathological score (colon, H&E)” value came to 5.00±1.15. Also, the “disease activity index (DAI), clinical score of IBD” value in test [2] (50 mg/kg po qd, Cpd. 4 preventive (day −1 to day 6) and therapeutic (day 1 to day 6) regimens, mesalamine day −1 to day 6, compared with Vehicle) is given as “significantly reducing the clinical score; also recorded: significantly reduced DAI”. In addition, in test [2] (setting [5]), the “colon length (in words)” value is reported as “increased colon length” and the “colon weight (in words)” value was “significantly decreased colon weight”. Further, the body weight loss result in test [2] (Cpd. 4 50 mg/kg po qd, preventive and therapeutic regimens, compared with Vehicle, 50 mg/kg) is on record as “improving body weight loss; also recorded: improved body weight loss”. Moreover, in test [2] (setting [6]), the “cell number of monocytes in peripheral blood” value was “significantly reduced; also recorded: significantly decreased” and the “cell number of neutrophils in peripheral blood” value is “significantly reduced; also recorded: significantly decreased”. For the same compound, the “anemia (red blood cells and hemoglobin in peripheral blood)” value in test [2] (Cpd. 4 50 mg/kg po qd, compared with Vehicle) is on record as “improved anemia”. In addition, the “fibrosis score (Masson's Trichrome staining of colon)” value in test [2] (Cpd. 4 50 mg/kg therapeutic treatment, compared with Vehicle) is listed as “significantly reduced”. Moreover, in test [2] (Cpd. 4 preventive and therapeutic, compared with Vehicle), the “pathological score (in words)” value was “significantly decreased”. In test [2] (setting [7]), the “percentage of IFN-γ secreting CD4+ T cells (Th1 cells)” value is “significantly reduced”, the “percentage of IL-17A secreting CD4+ T cells (Th17 cells)” value was “significantly reduced”, the “percentage of NK cells (CD45+CD3−B220−NK1.1+)” value is given as “significantly reduced” and the “percentage of activated NK cells (CD45+CD3−B220−NK1.1+CD107a+)” value is recorded as “significantly reduced”. Besides, in test [2] (setting [7]), the “percentage of macrophages (CD45+CD3−B220−CD11b+F4/80+)” value was “significantly reduced” and the “percentage of neutrophils (CD45+CD3−B220−CD11B+LY6G+)” value is on record as “significantly reduced”.
